Assay results taken from patent publication US20120148633A1, “BINARY AND TERTIARY GALVANIC PARTICULATES AND METHODS OF MANUFACTURING AND USE THEREOF” (priority 2009, published 2012).

Key:
[1] = system: acetic acid-induced writhes; test: Acetic acid-induced writhing, oral administration; assay type: in vivo, Albino male CD-1 mice; conditions: 100 mg/kg orally 1 hour prior to i.p. acetic acid
Procedure: In this example, galvanic particulates produced by the process of Example 1 were evaluated for analgesic activity. Aspirin, a non-steroidal analgesic agent, which is known to show efficacy in this model, was included as a reference compound. Albino male CD-1 mice, weighing 24±2 g were used in the study. Galvanic particulates or aspirin were prepared in deionized water (DI Water) and were administered orally at a concentration of 100 mg/kg to mice 1 hour prior to injection of acetic acid. A […] of a 0.5% acetic acid solution was injected intraperitoneally, and the number of acetic acid-induced writhes were counted by an observer blinded to the treatment groups. A 50% decrease in the number of writhes indicated analgesic activity.

[2] = system: oxazolone-induced skin inflammation; test: Murine model of contact hypersensitivity (oxazolone ear inflammation), topical; assay type: in vivo, Albino male CD-1 mice; conditions: 1 mg/ml, 20 μl to left ear 1 hour after oxazolone challenge; ear biopsy weight at 24 hours

Structure (SMILES)	Analgesic Effectiveness (Percent Reduction Writhes) [1] [%]	Total Number of Writhes (Mean ± Std Dev) ([1]; vehicle 11.4 ± 6.1)	Percent Inhibition of Skin Inflammation [2]
CC(=O)Oc1ccccc1C(=O)O [Aspirin]	56	5.0 ± 3.6	
C[C@]12CCC(=O)C=C1CC[C@@H]1[C@@H]2[C@@H](O)C[C@@]2(C)[C@H]1CC[C@]2(O)C(=O)CO [Hydrocortisone]			70.3% ± 6.6%
